{
  "source": "ChEMBL document CHEMBL3991601",
  "about": "“The target landscape of clinical kinase drugs” (Science, 2017)",
  "note": "Activity calls are given as the source filed them. Rule as the data show it, for most assays here: actives have a measured Kd and inactives only a lower limit. Also: in the data inactive means no Kd found up to 30 µM.",
  "data": [
    {"target": "T1, ADP/ATP translocase 3 (Homo sapiens, UniProt P12236)", "T1 sequence (P12236 whole entry)": "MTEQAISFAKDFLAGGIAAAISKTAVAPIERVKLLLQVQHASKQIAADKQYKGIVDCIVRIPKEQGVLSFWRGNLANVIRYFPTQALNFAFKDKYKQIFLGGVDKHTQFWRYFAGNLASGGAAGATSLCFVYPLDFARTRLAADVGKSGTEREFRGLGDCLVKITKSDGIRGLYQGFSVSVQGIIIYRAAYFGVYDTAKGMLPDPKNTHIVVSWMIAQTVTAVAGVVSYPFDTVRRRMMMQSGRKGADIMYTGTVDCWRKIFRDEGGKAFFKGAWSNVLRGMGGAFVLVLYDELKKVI", "values": [
      {"smiles": "Cn1ncc(Cl)c1-c1cc(C(=O)N[C@H](CN)Cc2cccc(F)c2)sc1Cl", "note": "[AFURESERTIB]", "Kd": "> 30 µM (inactive)"},
      {"smiles": "C1=C/COCc2cc(ccc2OCCN2CCCC2)Nc2nccc(n2)-c2cccc(c2)COC/1", "note": "[PACRITINIB]", "Kd": "> 30 µM (inactive)"},
      {"smiles": "CNC(=O)c1ccc(C)c(-n2c(C)cc(OCc3ccc(F)cc3F)c(Br)c2=O)c1", "note": "[PH-797804]", "Kd": "> 30 µM (inactive)"}
    ]},
    {"target": "T2, DNA replication licensing factor MCM4 (Homo sapiens, UniProt P33991)", "T2 sequence (P33991 whole entry)": "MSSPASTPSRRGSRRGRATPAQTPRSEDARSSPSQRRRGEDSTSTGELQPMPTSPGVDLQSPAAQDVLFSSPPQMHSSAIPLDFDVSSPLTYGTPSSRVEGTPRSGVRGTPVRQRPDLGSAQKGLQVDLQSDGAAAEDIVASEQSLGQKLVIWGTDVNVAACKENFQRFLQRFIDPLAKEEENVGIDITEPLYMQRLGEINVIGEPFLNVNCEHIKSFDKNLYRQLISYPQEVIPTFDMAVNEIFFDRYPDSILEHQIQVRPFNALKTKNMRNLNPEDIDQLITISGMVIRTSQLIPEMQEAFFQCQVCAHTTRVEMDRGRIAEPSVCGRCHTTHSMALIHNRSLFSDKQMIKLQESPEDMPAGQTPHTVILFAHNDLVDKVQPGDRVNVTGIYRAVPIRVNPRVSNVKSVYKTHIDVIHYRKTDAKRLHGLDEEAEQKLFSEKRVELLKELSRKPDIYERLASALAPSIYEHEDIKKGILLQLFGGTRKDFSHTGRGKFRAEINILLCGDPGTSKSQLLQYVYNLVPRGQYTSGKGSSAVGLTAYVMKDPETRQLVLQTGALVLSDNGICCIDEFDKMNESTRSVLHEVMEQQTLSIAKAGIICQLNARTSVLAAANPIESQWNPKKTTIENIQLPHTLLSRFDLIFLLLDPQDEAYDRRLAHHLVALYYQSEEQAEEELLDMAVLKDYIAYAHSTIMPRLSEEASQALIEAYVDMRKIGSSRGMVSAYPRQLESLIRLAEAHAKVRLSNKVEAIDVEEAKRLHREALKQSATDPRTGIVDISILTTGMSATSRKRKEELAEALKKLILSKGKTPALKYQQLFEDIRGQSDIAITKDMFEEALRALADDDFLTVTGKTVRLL", "values": [
      {"smiles": "Cn1ncc(Cl)c1-c1cc(C(=O)N[C@H](CN)Cc2cccc(F)c2)sc1Cl", "note": "[AFURESERTIB]", "Kd": "> 30 µM (inactive)"},
      {"smiles": "CNC(=O)c1ccc(C)c(-n2c(C)cc(OCc3ccc(F)cc3F)c(Br)c2=O)c1", "note": "[PH-797804]", "Kd": "> 30 µM (inactive)"}
    ]},
    {"target": "Ras-related protein Rab-6A (Homo sapiens, UniProt P20340)", "sequence (P20340 whole entry)": "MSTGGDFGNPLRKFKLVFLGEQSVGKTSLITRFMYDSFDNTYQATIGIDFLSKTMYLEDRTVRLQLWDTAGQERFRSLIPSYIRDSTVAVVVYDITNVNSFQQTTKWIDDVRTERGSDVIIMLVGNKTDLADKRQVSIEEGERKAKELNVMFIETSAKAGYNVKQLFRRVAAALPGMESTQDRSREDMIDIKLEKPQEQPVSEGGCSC", "values": [
      {"smiles": "Cn1ncc(Cl)c1-c1cc(C(=O)N[C@H](CN)Cc2cccc(F)c2)sc1Cl", "note": "[AFURESERTIB]", "Kd": "> 30 µM (inactive)"},
      {"smiles": "C1=C/COCc2cc(ccc2OCCN2CCCC2)Nc2nccc(n2)-c2cccc(c2)COC/1", "note": "[PACRITINIB]", "Kd": "> 30 µM (inactive)"},
      {"smiles": "CNC(=O)c1ccc(C)c(-n2c(C)cc(OCc3ccc(F)cc3F)c(Br)c2=O)c1", "note": "[PH-797804]", "Kd": "> 30 µM (inactive)"}
    ]},
    {"target": "Proto-oncogene tyrosine-protein kinase Src (Homo sapiens, UniProt P12931)", "sequence (P12931 2-536 limits assumed)": "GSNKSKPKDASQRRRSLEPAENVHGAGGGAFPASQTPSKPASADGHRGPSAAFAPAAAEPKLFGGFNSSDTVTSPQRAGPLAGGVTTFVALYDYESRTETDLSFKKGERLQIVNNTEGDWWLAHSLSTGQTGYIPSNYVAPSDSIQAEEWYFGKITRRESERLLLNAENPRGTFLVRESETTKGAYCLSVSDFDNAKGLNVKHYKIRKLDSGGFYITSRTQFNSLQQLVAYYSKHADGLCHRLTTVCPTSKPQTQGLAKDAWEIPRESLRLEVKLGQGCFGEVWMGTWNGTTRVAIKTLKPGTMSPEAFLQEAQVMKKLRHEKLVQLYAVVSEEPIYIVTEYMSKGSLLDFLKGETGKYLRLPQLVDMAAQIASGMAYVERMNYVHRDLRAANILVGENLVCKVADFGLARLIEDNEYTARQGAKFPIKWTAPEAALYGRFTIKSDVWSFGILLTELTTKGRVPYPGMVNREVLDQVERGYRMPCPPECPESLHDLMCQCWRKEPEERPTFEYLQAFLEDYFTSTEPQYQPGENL", "values": [
      {"smiles": "Cn1ncc(Cl)c1-c1cc(C(=O)N[C@H](CN)Cc2cccc(F)c2)sc1Cl", "note": "[AFURESERTIB]", "Kd": "> 30 µM (inactive)"},
      {"smiles": "C1=C/COCc2cc(ccc2OCCN2CCCC2)Nc2nccc(n2)-c2cccc(c2)COC/1", "note": "[PACRITINIB]", "Kd": "> 30 µM (inactive)"},
      {"smiles": "CNC(=O)c1ccc(C)c(-n2c(C)cc(OCc3ccc(F)cc3F)c(Br)c2=O)c1", "note": "[PH-797804]", "Kd": "> 30 µM (inactive)"}
    ]},
    {"target": "Protein-tyrosine kinase 6 (Homo sapiens, UniProt Q13882)", "values": [
      {"smiles": "Cn1ncc(Cl)c1-c1cc(C(=O)N[C@H](CN)Cc2cccc(F)c2)sc1Cl", "note": "[AFURESERTIB]", "Kd": "> 30 µM (inactive)"},
      {"smiles": "C1=C/COCc2cc(ccc2OCCN2CCCC2)Nc2nccc(n2)-c2cccc(c2)COC/1", "note": "[PACRITINIB]", "Kd": "> 30 µM (inactive)"},
      {"smiles": "CNC(=O)c1ccc(C)c(-n2c(C)cc(OCc3ccc(F)cc3F)c(Br)c2=O)c1", "note": "[PH-797804]", "Kd": "> 30 µM (inactive)"}
    ]},
    {"target": "Rho-associated protein kinase 1 (Homo sapiens, UniProt Q13464)", "sequence (Q13464 whole entry)": "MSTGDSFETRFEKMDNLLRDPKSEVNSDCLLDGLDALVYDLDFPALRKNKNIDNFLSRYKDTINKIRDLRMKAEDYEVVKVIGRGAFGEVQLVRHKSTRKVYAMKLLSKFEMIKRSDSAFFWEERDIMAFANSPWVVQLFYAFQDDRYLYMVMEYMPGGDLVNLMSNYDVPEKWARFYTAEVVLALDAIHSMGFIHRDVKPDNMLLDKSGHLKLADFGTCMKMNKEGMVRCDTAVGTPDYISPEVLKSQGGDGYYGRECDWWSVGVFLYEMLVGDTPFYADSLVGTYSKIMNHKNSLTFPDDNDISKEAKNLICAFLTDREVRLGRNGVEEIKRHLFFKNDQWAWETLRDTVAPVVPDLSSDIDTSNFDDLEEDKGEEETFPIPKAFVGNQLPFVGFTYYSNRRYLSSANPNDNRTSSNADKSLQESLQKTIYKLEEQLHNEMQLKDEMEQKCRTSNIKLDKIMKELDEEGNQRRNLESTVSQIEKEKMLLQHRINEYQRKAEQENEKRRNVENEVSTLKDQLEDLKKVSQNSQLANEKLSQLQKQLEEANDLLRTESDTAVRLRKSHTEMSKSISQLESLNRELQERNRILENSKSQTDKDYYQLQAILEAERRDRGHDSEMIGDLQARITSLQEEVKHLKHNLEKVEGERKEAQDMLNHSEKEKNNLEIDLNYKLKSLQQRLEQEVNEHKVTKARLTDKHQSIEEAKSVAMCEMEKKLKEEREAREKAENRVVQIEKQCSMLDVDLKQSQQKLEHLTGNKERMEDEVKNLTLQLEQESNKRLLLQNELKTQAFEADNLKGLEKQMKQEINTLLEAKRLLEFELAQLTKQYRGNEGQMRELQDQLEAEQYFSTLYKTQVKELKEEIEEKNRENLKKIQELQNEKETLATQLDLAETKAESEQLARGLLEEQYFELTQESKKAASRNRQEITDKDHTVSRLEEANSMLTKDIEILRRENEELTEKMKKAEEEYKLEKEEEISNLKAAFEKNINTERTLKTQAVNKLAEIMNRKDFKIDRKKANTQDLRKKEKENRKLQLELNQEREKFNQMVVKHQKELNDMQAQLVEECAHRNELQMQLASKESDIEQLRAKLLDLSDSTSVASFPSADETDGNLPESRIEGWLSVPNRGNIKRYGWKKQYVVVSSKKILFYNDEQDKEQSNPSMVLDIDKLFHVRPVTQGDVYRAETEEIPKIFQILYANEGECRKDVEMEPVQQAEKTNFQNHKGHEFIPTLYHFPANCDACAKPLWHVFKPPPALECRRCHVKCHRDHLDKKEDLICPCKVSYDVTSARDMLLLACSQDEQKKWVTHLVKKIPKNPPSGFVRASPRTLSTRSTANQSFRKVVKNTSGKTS", "values": [
      {"smiles": "Cn1ncc(Cl)c1-c1cc(C(=O)N[C@H](CN)Cc2cccc(F)c2)sc1Cl", "note": "[AFURESERTIB]", "Kd": "2.14 µM (active)"},
      {"smiles": "C1=C/COCc2cc(ccc2OCCN2CCCC2)Nc2nccc(n2)-c2cccc(c2)COC/1", "note": "[PACRITINIB]", "Kd": "> 30 µM (inactive)"},
      {"smiles": "CNC(=O)c1ccc(C)c(-n2c(C)cc(OCc3ccc(F)cc3F)c(Br)c2=O)c1", "note": "[PH-797804]", "Kd": "> 30 µM (inactive)"}
    ]},
    {"target": "T3, Interleukin-1 receptor-associated kinase 3 (Homo sapiens, UniProt Q9Y616)", "T3 sequence (Q9Y616 whole entry)": "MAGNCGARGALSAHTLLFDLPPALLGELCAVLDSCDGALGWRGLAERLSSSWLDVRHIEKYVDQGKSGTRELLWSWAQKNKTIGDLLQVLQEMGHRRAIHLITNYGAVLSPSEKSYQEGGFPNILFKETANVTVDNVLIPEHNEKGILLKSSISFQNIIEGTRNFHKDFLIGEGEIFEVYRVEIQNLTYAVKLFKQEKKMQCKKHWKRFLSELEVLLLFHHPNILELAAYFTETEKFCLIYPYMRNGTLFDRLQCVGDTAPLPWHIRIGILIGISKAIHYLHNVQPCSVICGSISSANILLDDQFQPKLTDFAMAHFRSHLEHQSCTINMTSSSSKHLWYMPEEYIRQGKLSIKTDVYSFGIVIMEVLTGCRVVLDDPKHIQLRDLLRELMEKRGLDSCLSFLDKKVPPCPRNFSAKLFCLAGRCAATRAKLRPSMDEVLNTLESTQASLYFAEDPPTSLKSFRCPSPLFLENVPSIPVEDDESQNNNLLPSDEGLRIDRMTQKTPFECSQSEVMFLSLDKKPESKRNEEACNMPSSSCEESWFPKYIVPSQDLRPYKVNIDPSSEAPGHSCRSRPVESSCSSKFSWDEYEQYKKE", "values": [
      {"smiles": "Cn1ncc(Cl)c1-c1cc(C(=O)N[C@H](CN)Cc2cccc(F)c2)sc1Cl", "note": "[AFURESERTIB]", "Kd": "> 30 µM (inactive)"},
      {"smiles": "C1=C/COCc2cc(ccc2OCCN2CCCC2)Nc2nccc(n2)-c2cccc(c2)COC/1", "note": "[PACRITINIB]", "Kd": "0.035 µM (active)"},
      {"smiles": "CNC(=O)c1ccc(C)c(-n2c(C)cc(OCc3ccc(F)cc3F)c(Br)c2=O)c1", "note": "[PH-797804]", "Kd": "> 30 µM (inactive)"}
    ]},
    {"target": "Tyrosine-protein kinase Yes (Homo sapiens, UniProt P07947)", "sequence (P07947 whole entry)": "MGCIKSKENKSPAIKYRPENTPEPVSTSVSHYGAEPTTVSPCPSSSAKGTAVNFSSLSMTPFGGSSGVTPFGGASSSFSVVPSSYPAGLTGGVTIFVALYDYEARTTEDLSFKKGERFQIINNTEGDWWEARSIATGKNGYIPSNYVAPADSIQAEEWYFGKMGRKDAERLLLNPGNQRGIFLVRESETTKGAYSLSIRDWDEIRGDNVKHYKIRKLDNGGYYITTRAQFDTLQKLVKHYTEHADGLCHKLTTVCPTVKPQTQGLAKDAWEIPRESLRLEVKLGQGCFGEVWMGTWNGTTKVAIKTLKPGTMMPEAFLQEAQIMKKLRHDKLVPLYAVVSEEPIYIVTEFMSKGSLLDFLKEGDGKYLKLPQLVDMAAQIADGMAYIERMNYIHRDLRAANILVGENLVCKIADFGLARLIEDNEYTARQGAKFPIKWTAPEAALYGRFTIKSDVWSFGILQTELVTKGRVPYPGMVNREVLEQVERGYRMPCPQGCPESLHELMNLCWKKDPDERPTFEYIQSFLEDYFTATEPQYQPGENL", "values": [
      {"smiles": "Cn1ncc(Cl)c1-c1cc(C(=O)N[C@H](CN)Cc2cccc(F)c2)sc1Cl", "note": "[AFURESERTIB]", "Kd": "> 30 µM (inactive)"},
      {"smiles": "C1=C/COCc2cc(ccc2OCCN2CCCC2)Nc2nccc(n2)-c2cccc(c2)COC/1", "note": "[PACRITINIB]", "Kd": "> 30 µM (inactive)"},
      {"smiles": "CNC(=O)c1ccc(C)c(-n2c(C)cc(OCc3ccc(F)cc3F)c(Br)c2=O)c1", "note": "[PH-797804]", "Kd": "> 30 µM (inactive)"}
    ]},
    {"target": "Serine/threonine-protein kinase 16 (Homo sapiens, UniProt O75716)", "sequence (O75716 whole entry)": "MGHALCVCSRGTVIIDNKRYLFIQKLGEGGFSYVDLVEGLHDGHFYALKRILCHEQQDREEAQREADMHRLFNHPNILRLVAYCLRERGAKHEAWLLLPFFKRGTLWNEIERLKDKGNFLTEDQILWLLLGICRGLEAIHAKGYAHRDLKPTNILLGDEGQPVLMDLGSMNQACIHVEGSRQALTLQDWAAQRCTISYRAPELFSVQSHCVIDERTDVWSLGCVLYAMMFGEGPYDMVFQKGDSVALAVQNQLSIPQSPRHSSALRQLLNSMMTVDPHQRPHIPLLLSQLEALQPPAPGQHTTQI", "values": [
      {"smiles": "Cn1ncc(Cl)c1-c1cc(C(=O)N[C@H](CN)Cc2cccc(F)c2)sc1Cl", "note": "[AFURESERTIB]", "Kd": "> 30 µM (inactive)"},
      {"smiles": "C1=C/COCc2cc(ccc2OCCN2CCCC2)Nc2nccc(n2)-c2cccc(c2)COC/1", "note": "[PACRITINIB]", "Kd": "1.87 µM (active)"},
      {"smiles": "CNC(=O)c1ccc(C)c(-n2c(C)cc(OCc3ccc(F)cc3F)c(Br)c2=O)c1", "note": "[PH-797804]", "Kd": "> 30 µM (inactive)"}
    ]},
    {"target": "T4, Ferrochelatase, mitochondrial (Homo sapiens, UniProt P22830)", "T4 sequence (P22830 whole entry)": "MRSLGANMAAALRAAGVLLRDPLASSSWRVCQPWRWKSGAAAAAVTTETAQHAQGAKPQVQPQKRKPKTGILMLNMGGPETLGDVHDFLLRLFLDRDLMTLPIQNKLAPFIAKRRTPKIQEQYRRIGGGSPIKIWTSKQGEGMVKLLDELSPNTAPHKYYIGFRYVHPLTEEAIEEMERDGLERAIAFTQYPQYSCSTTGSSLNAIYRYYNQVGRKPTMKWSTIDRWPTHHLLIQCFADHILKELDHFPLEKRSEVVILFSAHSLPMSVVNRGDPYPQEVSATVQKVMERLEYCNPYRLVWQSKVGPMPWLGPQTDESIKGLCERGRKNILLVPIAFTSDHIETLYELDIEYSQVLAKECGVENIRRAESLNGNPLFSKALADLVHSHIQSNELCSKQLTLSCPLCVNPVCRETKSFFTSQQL", "values": [
      {"smiles": "Cn1ncc(Cl)c1-c1cc(C(=O)N[C@H](CN)Cc2cccc(F)c2)sc1Cl", "note": "[AFURESERTIB]", "Kd": "> 30 µM (inactive)"},
      {"smiles": "C1=C/COCc2cc(ccc2OCCN2CCCC2)Nc2nccc(n2)-c2cccc(c2)COC/1", "note": "[PACRITINIB]", "Kd": "67.9 µM (active)"},
      {"smiles": "CNC(=O)c1ccc(C)c(-n2c(C)cc(OCc3ccc(F)cc3F)c(Br)c2=O)c1", "note": "[PH-797804]", "Kd": "> 30 µM (inactive)"}
    ]},
    {"target": "Mitotic checkpoint serine/threonine-protein kinase BUB1 (Homo sapiens, UniProt O43683)", "sequence (O43683 whole entry)": "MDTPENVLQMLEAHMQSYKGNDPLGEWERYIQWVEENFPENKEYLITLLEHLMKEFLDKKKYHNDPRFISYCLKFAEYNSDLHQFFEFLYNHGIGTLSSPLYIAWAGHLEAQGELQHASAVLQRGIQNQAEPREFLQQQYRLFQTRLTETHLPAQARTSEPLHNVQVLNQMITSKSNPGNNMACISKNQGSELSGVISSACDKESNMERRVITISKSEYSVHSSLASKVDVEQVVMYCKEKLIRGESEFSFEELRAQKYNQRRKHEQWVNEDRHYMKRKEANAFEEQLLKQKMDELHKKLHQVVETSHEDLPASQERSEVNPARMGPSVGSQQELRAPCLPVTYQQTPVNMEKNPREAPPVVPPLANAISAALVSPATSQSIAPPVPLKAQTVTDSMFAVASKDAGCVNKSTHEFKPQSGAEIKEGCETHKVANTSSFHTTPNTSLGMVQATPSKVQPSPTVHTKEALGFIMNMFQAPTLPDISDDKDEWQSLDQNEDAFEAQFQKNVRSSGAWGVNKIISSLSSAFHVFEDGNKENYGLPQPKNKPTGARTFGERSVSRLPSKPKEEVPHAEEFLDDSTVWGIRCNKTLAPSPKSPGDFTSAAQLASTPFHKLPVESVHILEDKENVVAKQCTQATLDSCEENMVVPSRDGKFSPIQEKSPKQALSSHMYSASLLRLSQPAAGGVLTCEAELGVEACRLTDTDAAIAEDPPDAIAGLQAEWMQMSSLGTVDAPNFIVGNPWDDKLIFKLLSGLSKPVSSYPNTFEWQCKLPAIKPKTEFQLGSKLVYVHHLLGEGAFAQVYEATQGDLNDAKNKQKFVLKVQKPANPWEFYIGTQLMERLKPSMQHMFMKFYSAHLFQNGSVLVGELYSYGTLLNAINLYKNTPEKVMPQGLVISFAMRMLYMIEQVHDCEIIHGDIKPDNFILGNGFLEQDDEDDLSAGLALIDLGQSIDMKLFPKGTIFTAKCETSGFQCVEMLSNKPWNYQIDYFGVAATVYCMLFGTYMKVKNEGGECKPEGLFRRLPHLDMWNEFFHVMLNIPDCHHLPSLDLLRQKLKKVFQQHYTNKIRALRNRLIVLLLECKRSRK", "values": [
      {"smiles": "Cn1ncc(Cl)c1-c1cc(C(=O)N[C@H](CN)Cc2cccc(F)c2)sc1Cl", "note": "[AFURESERTIB]", "Kd": "> 30 µM (inactive)"},
      {"smiles": "C1=C/COCc2cc(ccc2OCCN2CCCC2)Nc2nccc(n2)-c2cccc(c2)COC/1", "note": "[PACRITINIB]", "Kd": "> 30 µM (inactive)"},
      {"smiles": "CNC(=O)c1ccc(C)c(-n2c(C)cc(OCc3ccc(F)cc3F)c(Br)c2=O)c1", "note": "[PH-797804]", "Kd": "> 30 µM (inactive)"}
    ]},
    {"target": "Mitogen-activated protein kinase kinase kinase kinase 5 (Homo sapiens, UniProt Q9Y4K4)", "sequence (Q9Y4K4 whole entry)": "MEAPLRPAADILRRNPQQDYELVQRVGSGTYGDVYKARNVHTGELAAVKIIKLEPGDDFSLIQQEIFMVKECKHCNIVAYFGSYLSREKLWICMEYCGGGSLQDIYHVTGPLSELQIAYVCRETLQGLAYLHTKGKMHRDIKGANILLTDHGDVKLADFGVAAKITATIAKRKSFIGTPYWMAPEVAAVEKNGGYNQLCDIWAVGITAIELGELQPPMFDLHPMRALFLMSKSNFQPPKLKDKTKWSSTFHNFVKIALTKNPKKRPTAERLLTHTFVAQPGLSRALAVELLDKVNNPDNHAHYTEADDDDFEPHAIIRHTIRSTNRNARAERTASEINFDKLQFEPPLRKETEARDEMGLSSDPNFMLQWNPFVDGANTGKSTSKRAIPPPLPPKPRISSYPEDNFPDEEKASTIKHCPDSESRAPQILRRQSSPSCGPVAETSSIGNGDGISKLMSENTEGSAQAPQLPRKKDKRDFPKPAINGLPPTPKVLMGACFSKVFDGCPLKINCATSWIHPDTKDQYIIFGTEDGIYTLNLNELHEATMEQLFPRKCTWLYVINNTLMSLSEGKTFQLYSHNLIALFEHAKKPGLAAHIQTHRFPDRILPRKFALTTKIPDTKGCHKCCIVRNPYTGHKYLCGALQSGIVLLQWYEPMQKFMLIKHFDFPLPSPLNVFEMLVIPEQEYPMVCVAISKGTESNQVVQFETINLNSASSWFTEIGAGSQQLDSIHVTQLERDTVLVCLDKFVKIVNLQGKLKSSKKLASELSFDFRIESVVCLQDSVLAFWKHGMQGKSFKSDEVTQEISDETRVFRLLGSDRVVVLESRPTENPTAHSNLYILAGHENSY", "values": [
      {"smiles": "Cn1ncc(Cl)c1-c1cc(C(=O)N[C@H](CN)Cc2cccc(F)c2)sc1Cl", "note": "[AFURESERTIB]", "Kd": "> 30 µM (inactive)"},
      {"smiles": "C1=C/COCc2cc(ccc2OCCN2CCCC2)Nc2nccc(n2)-c2cccc(c2)COC/1", "note": "[PACRITINIB]", "Kd": "> 30 µM (inactive)"},
      {"smiles": "CNC(=O)c1ccc(C)c(-n2c(C)cc(OCc3ccc(F)cc3F)c(Br)c2=O)c1", "note": "[PH-797804]", "Kd": "> 30 µM (inactive)"}
    ]}
  ]
}
